Data on 2 compounds can be found in patent US20120196918A1, “PREVENTING ISLET INFLAMMATION AND DYSFUNCTION AND MAINTAINING PROPER GLUCOSE LEVELS BY CONTROLLING eIF5A AND ITS HYPUSINATION” (priority 2009, published 2012).

Data set [1] deals with iNOS. The experiment in a line: Cytokine-induced iNOS protein in islets from siRNA-injected mice (immunoblot). Format: cell-based, mouse. To be noted: cytokines 4 h. The protocol: Because nitric oxide is known to be a primary effector of islet dysfunction in response to cytokine-induced stress, the transcription of the gene encoding iNOS (Nos2) was also examined.
Cytokine and inhibitor incubation studies: For cytokine incubation assays, a 1000× cocktail of cytokines containing 5 μg/ml IL1β, 10 μg/ml TNFα, and 100 μg/ml IFNγ (all prepared in 0.1% BSA in Tris-buffered saline) was applied at 1× final concentration to groups of 50 islets or 1×10^6 INS-1 (832/13) cells for a total of 4 h at 37° C. […]
(§1) Immunoblot and nitrite and iNOS assays: Whole cell extracts were resolved by electrophoresis on a 4-20% SDS-polyacrylamide gel, followed by immunoblot using anti-eIF5A1, anti-eIF5A2, anti-iNOS, anti-GFP, or anti-actin primary antibodies and fluorophore-labeled secondary antibodies. Immunoblots were visualized using the Li-Cor® Odyssey® system (Li-Cor Biosciences) and quantitated by scanning fluorometry using Odyssey Imaging v. […] Nitrite was quantitated by measuring nitric oxide-derived nitrite from INS-1 cell culture medium using the Griess reagent (Promega) according to the manufacturer's recommendations. iNOS activity was measured using a commercially available kit (Cayman).

The test system of data set [2] is INS-1 cells. The experiment in a line: Live/dead two-colour fluorescence cytometry of INS-1 cells. The class given is cell-based, rat. The protocol: (§2) Because GC7 is known to be inactivated by the action amine oxidases, which are abundant in serum, typical studies with GC7 in the literature have used aminoguanidine to inhibit amine oxidases (16). […] To rule out possible adverse effects of GC7 on cell viability, quantitative 2 color fluorescence analysis of live (calcein-AM-positive) and dead (ethidium homodimer-1-positive) cells were performed using fluorescence cytometry.
For flow cytometry studies, INS-1 cells (serum starved or pretreated with GC7 as indicated in the figures) were stained with calcein-AM and ethidium homodimer 1 (Live/Dead® kit, Invitrogen) for 30 minutes, and 30,000 cells/sample were analyzed for green (living cells) and red (dead cells) fluorescence using a FACS Calibur (BD bioscience) instrument. For cell cycle analysis, 10^6 cells were washed in PBS and fixed in ice-cold 70% ethanol for 1 hour. After washing in PBS, cells were re-suspended in Guava cell cycle reagent (Millipore) and incubated at room temperature for 30 minutes. Intercalation of propidium iodide into cellular DNA was quantitated using a FACS Calibur instrument and the data analyzed for cell cycle status using Modfit software.

Data set [3] has as its system INS-1 cells. The experiment in a line: GSCa and GSIS of INS-1 cells exposed to cytokines. To be noted: preincubation with 125 μM GC7, cytokines 4 h. Format: cell-based, rat. The protocol: GSCa and GSIS studies were carried out to assess INS-1 cell function in the presence of cytokines and GC7. […] This asynchronous pattern may be related to the dispersed nature of insulinoma cells compared to f3 cells in an intact islet.
Cytokine and inhibitor incubation studies: For cytokine incubation assays, a 1000× cocktail of cytokines containing 5 μg/ml IL1β, 10 μg/ml TNFα, and 100 μg/ml IFNγ (all prepared in 0.1% BSA in Tris-buffered saline) was applied at 1× final concentration to groups of 50 islets or 1×10^6 INS-1 (832/13) cells for a total of 4 h at 37° C. For GC7 incubation studies, GC7 was prepared at a stock concentration of 125 mM in 10 mM acetic acid and applied to cultures of 50 islets or 1×10^6 INS-1 cells to obtain the final concentrations indicted in the figures. Where needed, GC7 was protected from amine oxidases in serum by addition of 1 mM aminoguanidine (Sigma). Cells were incubated with GC7 overnight (˜16 h) at 37° C. prior to analysis. […]
GSCa imaging assays: Intracellular Ca^2+ ((Ca2+)i) was measured using the ratiometric Ca^2+ indicator fura-2 AM using a modification of previously published methods (79). The glucose-stimulated (Ca2+)i response (GSCa) was defined as the difference between ratio measurements (340/380 nm fluorescence) in 11 mM vs. 3 mM glucose. Data were analyzed with IP Lab's software version 4.0 (Scanalytics). […]

The test system of data set [4] is iNOS. The experiment in a line: iNOS activity assay (commercial kit). Format: biochemical. To be noted: GC7 125 μM. The method, then:
as §2
Immunoblot and nitrite and iNOS assays: Whole cell extracts were resolved by electrophoresis on a 4-20% SDS-polyacrylamide gel, followed by immunoblot using anti-eIF5A1, anti-eIF5A2, anti-iNOS, anti-GFP, or anti-actin primary antibodies and fluorophore-labeled secondary antibodies. Immunoblots were visualized using the Li-Cor® Odyssey® system (Li-Cor Biosciences) and quantitated by scanning fluorometry using Odyssey Imaging v. 3.0 software (Li-Cor Biosciences). Nitrite was quantitated by measuring nitric oxide-derived nitrite from INS-1 cell culture medium using the Griess reagent (Promega) according to the manufacturer's recommendations. iNOS activity was measured using a commercially available kit (Cayman).

Data set [5] concerns iNOS. Kind of data set: Cytokine-induced iNOS protein in human islets (immunoblot). Format: cell-based. To be noted: incubation with GC7, cytokines.
Description: eIF5A1 and eIF5A2 are the only proteins known to contain the unique amino acid hypusine at position 50. Hypusine is formed as a posttranslational modification of residue Lys50 in a reaction requiring spermidine and catalyzed by the sequential actions of the enzymes deoxyhypusine synthase (DHS) and deoxyhypusine hydroxylase (DOHH) (Chen, K Y, and Liu, A Y. Biochemistry and function of hypusine formation on eukaryotic initiation factor 5A. Biol Signals. 1997; 6(3):105-109). […] To further investigate the mechanism of eIF5A-regulated translation of Nos2, studies were performed following overnight incubation of cells with mimosine (an inhibitor of DOHH) and GC7 (an inhibitor of DHS). […]
as §1

As for “5′-AACGGAAUGACUUCCAGCUGA-3′ (siSTABLE modification, further chemistry not given here) [si-eIF5A]”, the “induction of iNOS protein in islets” value in data set [1] is reported as “significantly attenuated”.

In the case of `NCCCCCCCN=C(N)N` [GC7], the “percentage of dead cells” value in data set [2] (125 μM GC7, 3 days exposure) came out at 70%. Moreover, in data set [2] (GC7 0 to 125 μM, overnight exposure, unaffected by concentration), the “percentage of dead INS-1 cells” value is on record as 4-5%. Besides, in data set [3], the “GSCa and GSIS after cytokines” value was “reverses the suppressive effect of cytokines on GSCa and GSIS almost completely”. Further, the “inhibition of iNOS activity” value in data set [4] was “does not appear to inhibit iNOS activity”. Also, the “iNOS protein levels in human islets” value in data set [5] was “dose-dependent inhibition”.
